Assays:
TFEB = TFEB nuclear translocation assay; assay type: cell-based; settings: Homo sapiens; HeLa wt or HeLa TRPML1 KO cells, treated for 2 hrs; ratio of nuclear to ring-region TFEB intensity
How it was run: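 HeLa wild-type or TRPML1 KO cells treated 2 h with compound at 37 °C, PFA-fixed, immunostained for TFEB (Alexa 488) with Hoechst nuclei. Imaged at ×20, four fields/well. Value is ratio of nuclear to perinuclear-ring TFEB intensity, with nuclei counts.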

THP-1 cells = experiment: Lamp1 lysosomal exocytosis assay; assay type: cell-based; settings: Homo sapiens, 55 min, 55 min incubation, top dose 20 μM
How it was run: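 THP-1 cells (1e5/well) exposed to a 7-point 3-fold compound series, top final 20 μM, for 55 min at 37°C. Surface Lamp1 then stained with Lamp1-PE on ice in buffer containing 80 μM Dynasore, and read by flow cytometry as PE geometric mean on live, sytox-negative singlets.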

SMILES | EC50 (TFEB) [nM] | EC50 (THP-1 cells) [nM]
O=C(Nc1ccccc1)C1CCC2(CC1)CN(S(=O)(=O)c1ccc(C(F)F)cc1)c1ccccc12 (stereo not drawn) [Compound I-230, 1′-((4-(difluoromethyl)phenyl)sulfonyl)-N-phenylspiro[cyclohexane-1,3′-indoline]-4-carboxamide] | ≤ 2000 | ≥ 5010
O=C(CCc1ccccc1)N1CCC2(CC1)CN(S(=O)(=O)c1ccc(C(F)F)cc1)c1ccccc12 [Compound I-174, 1-(1-((4-(difluoromethyl)phenyl)sulfonyl)spiro[indoline-3,4′-piperidin]-1′-y1)-3-phenylpropan-1-one] | ≤ 2000 | ≤ 500
COc1cccc(NC(=O)N2CCC3(CC2)CN(S(=O)(=O)c2ccc(C(F)F)cc2)c2ccccc23)c1OC [Compound I-228, 1-((4-(difluoromethyl)phenyl)sulfonyl)-N-(2,3-dimethoxyphenyl)spiro[indoline-3,4′-piperidine]-1′-carboxamide] | ≤ 2000 | ≥ 5010
CN(C)S(=O)(=O)c1ccc(S(=O)(=O)N2CCC3(CCN(CC(F)(F)F)CC3)c3ccccc32)cc1 [Compound I-126, N,N-dimethyl-4-((1-(2,2,2-trifluoroethyl)-2′,3′-dihydro-1′H-spiro[piperidine-4,4′-quinolin]-1′-yl)sulfonyl)benzenesulfonamide] | ≤ 2000 | ≥ 5010
CC1(C)Oc2ccc(S(=O)(=O)N3CC4(CCCC4)c4ccccc43)cc2O1 [Compound I-57, 1′-[(2,2-dimethyl-2H-1,3-benzodioxol-5-yl)sulfony1]-1′,2′-dihydrospiro[cyclopentane-1,3′-indole]] | 2010 to 8000 | ≥ 5010
O=S(=O)(c1ccc(C(F)F)cc1)N1CC2(CCN(CC(F)(F)F)CC2)c2ccccc21 [Compound I-86, 1-[4-(difluoromethyl)benzenesulfonyl]-1′-(2,2,2-trifluoroethyl)-1,2-dihydrospiro[indole-3,4′-piperidine]] | ≤ 2000 | ≥ 5010
O=S(=O)(c1ccc(OC(F)(F)F)cc1)N1CC2(CCCC2)c2ccccc21 [Compound I-31, 1′-[4-(trifluoromethoxy)benzenesulfonyl]-1′,2′-dihydrospiro[cyclopentane-1,3′-indole]] | 2010 to 8000 | ≥ 5010
CS(=O)(=O)c1ccc(S(=O)(=O)N2CC3(CCN(C(=O)OCc4ccccc4)CC3)c3ccccc32)cc1 [Compound I-180] | ≤ 2000 | ≤ 500
O=C(OCc1ccccc1)N1CCC2(CC1)CN(S(=O)(=O)c1ccc(C(F)(F)F)nc1)c1ccccc12 [Compound I-187, benzyl 1-((6-(trifluoromethyl)pyridin-3-yl)sulfonyl)spiro[indoline-3,4′-piperidine]-1′-carboxylate] | ≤ 2000 | 510 to 1000
CN(C)S(=O)(=O)c1ccc(S(=O)(=O)N2CC3(CCCC3)c3ccncc32)cc1 [Compound I-127, 4-({1′,2′-dihydrospiro[cyclopentane-1,3′-pyrrolo[2,3-c]pyridin]-1′-yl}sulfonyl)-N,N-dimethylbenzene-1-sulfonamide] | 2010 to 8000 | 1010 to 5000
CN(C)S(=O)(=O)c1ccc(S(=O)(=O)N2CC3(CCN(CC(F)(F)F)CC3)c3ccccc32)cc1 [Compound I-87, N,N-dimethyl-4-{[1′-(2,2,2-trifluoroethyl)-1,2-dihydrospiro[indole-3,4′-piperidin]-1-yl]sulfonyl}benzene-1-sulfonamide] | ≤ 2000 | 510 to 1000
CN(C)S(=O)(=O)c1ccc(S(=O)(=O)N2CC3(CCCC3)Oc3ccccc32)cc1 [Compound I-116, 4-((3,4-dihydrospiro[1,4-benzoxazine-2,1′-cyclopentan]-4-yl}sulfonyl)-N,N-dimethylbenzene-1-sulfonamide] | ≤ 2000 | ≥ 5010
CN(C)S(=O)(=O)c1ccc(S(=O)(=O)N2CC3(CCN(C(=O)C(C)(C)C)C3)c3ccccc32)cc1 (stereo not drawn) [Compound I-73, 4-{[1′-(2,2-dimethylpropanoyl)-1,2-dihydrospiro[indole-3,3′-pyrrolidin]-1-yl]sulfonyl}-N,N-dimethylbenzene-1-sulfonamide] | 2010 to 8000 | ≥ 5010
O=C(OCc1ccccc1)N1CCC2(CC1)CN(S(=O)(=O)c1ccc(C(F)F)cc1)c1cccnc12 [Compound I-134, benzyl 1′-[4-(difluoromethyl)benzenesulfonyl]-1′,2′-dihydrospiro[piperidine-4,3′-pyrrolo[3,2-b]pyridine]-1-carboxylate] | ≤ 2000 | ≤ 500
O=C(OCc1ccccc1)N1CCC2(CC1)CN(C(=O)c1ccccc1)c1ccccc12 [Compound I-184, benzyl 1-benzoyl-1,2-dihydrospiro[indole-3,4′-piperidine]-1′-carboxylate] | ≥ 10000 | ≥ 5010

Reference: patent publication US20230416262A1, “TRPML MODULATORS” (Casma Therapeutics, Inc., priority 2020, published 2023)
